Columns and labels:
[1] = tested on: HCV genotype 1b replicon; assay: HCV RNA replication in Huh7 replicon cells (RT-PCR), single drugs and combinations; type: cell-based, hepatitis C virus; conditions: alone, 72 hours
[2] = tested on: replicon cells; assay: Cytotoxicity, MTS assay of replicon cells; conditions: tested doses, 72 hours
[3] = tested on: JFH1/CsN6A4 infected Huh7 cells; assay: Microarray gene expression in JFH1/CsN6A4 infected Huh7 cells; conditions: for expression of genes involved in the IFN signaling / number of the 118 HCV modulated genes down-regulated (FC≦0.5) by both compounds / number of the 118 HCV modulated genes up-regulated (FC≧2) by both compounds: 48 hours treatment; for expression of genes involved in the IFN signaling: IFN 100IU; for Number of genes modulated by both HCQ and CQ, Down-regulated / Number of genes modulated by both HCQ and CQ, Up-regulated: 40 μM; for Number of genes modulated by both HCQ and CQ, Down-regulated: FC≦0.5; for Number of genes modulated by both HCQ and CQ, Up-regulated: FC≧2
[4] = tested on: Huh7 harboring replicon cells; assay: Microarray gene expression in Huh7 harboring replicon cells; type: cell-based, Human; conditions: 10 μM
[5] = tested on: Huh 5-2 cells; conditions: 6.6 μM; cited from earlier work
[6] = tested on: HCV replicon-Huh-7/neo cells; assay: Replication levels of HCV replicon by NPTII quantification; conditions: 0.5, 1 or 10 μM, 72 hours
[7] = tested on: NiV; conditions: hamster, in vivo; cited from earlier work
[8] = tested on: HeV; conditions: hamster, in vivo; cited from earlier work
[9] = 48 h of antiviral treatment, vs untreated infected cells
[10] = cut-off at 12 hours and 24 hours
[11] = after either 12 hours or 48 hours of treatment

Compound: IFNα
- HCV RNA replication [1]: inhibited HCV RNA replication in a dose dependent manner
- cell viability [2]: not affected
- Fold Change, AMBRA1 [3, 9]: 0.4
- Fold Change, ATF2 [3, 9]: 0.4
- Fold Change, ATF3 [3, 9]: 0.2
- Fold Change, ATF4 [3, 9]: 0.5
- Fold Change, ATF7IP [3, 9]: 0.4
- Fold Change, ATG2A [3, 9]: 0.3
- Fold Change, ATG4B [3, 9]: 1.3
- Fold Change, ATG7 [3, 9]: 0.9
- Fold Change, ATG12 [3, 9]: 0.8
- Fold Change, BBC3 [3, 9]: 0.1
- Fold Change, BCL3 [3, 9]: 0.4
- Fold Change, BECN1 [3, 9]: 1.4
- Fold Change, BMF [3, 9]: 0.2
- Fold Change, CXCL5 [3, 9]: 1.3
- Fold Change, CYP1A1 [3, 9]: 0.4
- Fold Change, CYR61 [3, 9]: 0.2
- Fold Change, DAPK3 [3, 9]: 0.3
- Fold Change, DDIT3 [3, 9]: 0.1
- Fold Change, DDIT4 [3, 9]: 0.3
- Fold Change, DUSP1 [3, 9]: 0.1
- Fold Change, DUSP4 [3, 9]: 0.2
- Fold Change, DUSP8 [3, 9]: 0.1
- Fold Change, FOXO3 [3, 9]: 0.5
- Fold Change, GABARAPL1 [3, 9]: 0.4
- Fold Change, GADD45A [3, 9]: 0.2
- Fold Change, GADD45B [3, 9]: 0.1
- Fold Change, GADD45G [3, 9]: 0.3
- Fold Change, HRK [3, 9]: 0.7
- Fold Change, ICAM1 [3, 9]: 2.0
- Fold Change, IKBKAP [3, 9]: 1.3
- Fold Change, JUN [3, 9]: 0.2
- Fold Change, MAP1LC3B [3, 9]: 0.4
- Fold Change, MYC [3, 9]: 0.3
- Fold Change, NFKB1 [3, 9]: 0.8
- Fold Change, NFKBIA [3, 9]: 0.3
- Fold Change, NFKBIB [3, 9]: 0.4
- Fold Change, NFKBIE [3, 9]: 0.3
- Fold Change, NFKBIL2 [3, 9]: 1.5
- Fold Change, NKIRAS1 [3, 9]: 0.4
- Fold Change, NKIRAS2 [3, 9]: 1.0
- Fold Change, NKRF [3, 9]: 1.0
- Fold Change, PDRG1 [3, 9]: 0.6
- Fold Change, PIK3C3 [3, 9]: 0.5
- Fold Change, PRKAA1 [3, 9]: 0.3
- Fold Change, RELB [3, 9]: 0.4
- Fold Change, SESN2 [3, 9]: 0.2
- Fold Change, SIRT1 [3, 9]: 0.5
- Fold Change, SQSTM1 [3, 9]: 0.5
- Fold Change, STK11 [3, 9]: 0.9
- Fold Change, TANK [3, 9]: 1.2
- Fold Change, TNFRSF10B [3, 9]: 0.6
- Fold Change, TRAF2 [3, 9]: 0.7
- Fold Change, TRAF4 [3, 9]: 0.7
- Fold Change, TSC1 [3, 9]: 0.6
- Fold Change, TSC2 [3, 9]: 0.9
- Fold Change, UBD [3, 9]: 0.8
- Fold Change, ULK1 [3, 9]: 0.3
- expression of genes involved in the IFN signaling [3]: significantly increased

Compound: CCN(CCO)CCCC(C)Nc1ccnc2cc(Cl)ccc12 (stereo not drawn) [HCQ, 2-[[4-[(7-chloro-4-quinolinyl)amino]pentyl]ethylamino]ethanol, reference compound]
- HCV RNA replication [1]: inhibited HCV RNA replication in a dose dependent manner
- Number of genes transcriptionally modulated, Down-regulated ([4]; 6 hours): 5
- Number of genes transcriptionally modulated, Down-regulated ([4]; 12 hours): 30
- Number of genes transcriptionally modulated, Up-regulated ([4]; 12 hours): 7
- Number of genes transcriptionally modulated, Down-regulated ([4]; 24 hours): 63
- Number of genes transcriptionally modulated, Up-regulated ([4]; 24 hours): 23
- number of significantly repressed genes (FC≦0.5) among the 23 modulated genes [4, 10]: 20
- number of up-regulated genes (FC≧2) among the 23 modulated genes [4, 10]: 3
- cell growth with respect to the untreated control [5]: more than 81%
- replication level of HCV replicon (% NPTII), number of HCV infected cells [6]: dose-dependent decrease
- Number of genes modulated by both HCQ and CQ, Down-regulated ([3]; 12 h): 9
- Number of genes modulated by both HCQ and CQ, Up-regulated ([3]; 12 h): 38
- Number of genes modulated by both HCQ and CQ, Down-regulated ([3]; 48 h): 262
- Number of genes modulated by both HCQ and CQ, Up-regulated ([3]; 48 h): 24
- Number of genes Induced by JFH1 infection and Down-regulated by treatment ([3]; 48 h): 104
- Number of genes Induced by JFH1 infection and Up-regulated by treatment ([3]; 48 h): 1
- Number of genes Repressed by JFH1 infection and Down-regulated by treatment ([3]; 48 h): 2
- Number of genes Repressed by JFH1 infection and Up-regulated by treatment ([3]; 48 h): 11
- number of the 118 HCV modulated genes down-regulated (FC≦0.5) by both compounds [3]: 106
- number of the 118 HCV modulated genes up-regulated (FC≧2) by both compounds [3]: 12
- expression of genes involved in the IFN signaling [3]: None of the genes regulated by IFN were found to be modulated
- genes significantly down-modulated in common with HCQ and CQ [3, 11]: 271 genes
- genes significantly up-regulated in common with HCQ and CQ [3, 11]: 62 genes

Compound: CCN(CC)CCCC(C)Nc1ccnc2cc(Cl)ccc12 (stereo not drawn) [CQ, chloroquine]
- HCV RNA replication [1]: inhibited HCV RNA replication
- protection of hamsters [7]: did not protect hamsters
- protection of hamsters [8]: did not protect hamsters
- Number of genes modulated by both HCQ and CQ, Down-regulated ([3]; 12 h): 9
- Number of genes modulated by both HCQ and CQ, Up-regulated ([3]; 12 h): 38
- Number of genes modulated by both HCQ and CQ, Down-regulated ([3]; 48 h): 262
- Number of genes modulated by both HCQ and CQ, Up-regulated ([3]; 48 h): 24
- Number of genes Induced by JFH1 infection and Down-regulated by treatment ([3]; 48 h): 104
- Number of genes Induced by JFH1 infection and Up-regulated by treatment ([3]; 48 h): 1
- Number of genes Repressed by JFH1 infection and Down-regulated by treatment ([3]; 48 h): 2
- Number of genes Repressed by JFH1 infection and Up-regulated by treatment ([3]; 48 h): 11
- number of the 118 HCV modulated genes down-regulated (FC≦0.5) by both compounds [3]: 106
- number of the 118 HCV modulated genes up-regulated (FC≧2) by both compounds [3]: 12
- genes significantly up-regulated in common with HCQ and CQ [3, 11]: 62 genes

Compound: NC(=O)c1ncn([C@@H]2O[C@H](CO)[C@@H](O)[C@H]2O)n1 [Ribavirin, ribavirin]
- delay of death from viral disease [7]: approximately 5 days
- effect on death from viral disease [8]: no significant effect

Reference: US8987302B2, “Treatment of hepatitis C virus related diseases using hydroxychloroquine or a combination of hydroxychloroquine and an anti-viral agent” (Panmed Ltd., priority 2010, dated 2015)
